This is an account of results in PubChem BioAssay (NCI).

SMILES strings stand for the structures.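 Values below derive from 48-hour exposures of cells grown in 96-well plates, with endpoints linearly interpolated between the two concentrations bracketing the appropriate inhibition level. GI50 marks 50% less growth. TGI is the concentration that stops growth completely.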 Where only a bound is given, the exact number is not on record here.

Among the test systems are HS 578T breast; M14 melanoma; MALME-3M melanoma; MDA-MB-231 breast; MOLT-4 leukemia; RPMI-8226 leukemia; SR leukemia; HOP-92 NSCLC; K-562 leukemia; U251 CNS.
What all share (assay): DTP human tumour cell line panel, 48 h

By GI50 is commonly meant the concentration giving 50% growth inhibition. One may read the TGI as the concentration at which net growth stops. Low values mean more potent growth arrest, high ones less potent growth arrest. As to `CCCC[N+](CCCC)=c1ccc2nc3c(C)cc(N(CC)CC)cc3sc-2c1`, the GI50 in the assay with HS 578T breast is 0.341 µM; in the assay with M14 melanoma it was 0.338 µM; with MALME-3M melanoma, 0.165 µM; with MDA-MB-231 breast, 0.247 µM; in the assay on MOLT-4 leukemia it was 0.0958 µM; in the assay with RPMI-8226 leukemia, 0.0571 µM. Moreover, the GI50 in the assay with SR leukemia is 0.0524 µM. Also, the TGI with HS 578T breast is 2.29 µM; in the assay with M14 melanoma, 1.64 µM; in the assay with MALME-3M melanoma it was 0.429 µM; in the assay with MDA-MB-231 breast it was 0.849 µM; with MOLT-4 leukemia it was 3.14 µM; with RPMI-8226 leukemia, 1.58 µM. In the assay on SR leukemia, this molecule came in with a TGI of 1.97 µM.
For `Cc1ccc(C)c(NC(=O)NCc2ccc(Cl)cc2)c1`, the TGI in the assay with HOP-92 NSCLC is 63.5 µM; with HS 578T breast, over 100 µM; in the assay with K-562 leukemia, 98.6 µM; in the assay on M14 melanoma, over 100 µM; in the assay on MALME-3M melanoma, over 87.9 µM; in the assay with MDA-MB-231 breast, over 92 µM. In addition, the TGI was over 36.2 µM in the assay with MOLT-4 leukemia, over 100 µM in the assay with RPMI-8226 leukemia, 27.8 µM in the assay on SR leukemia and over 100 µM with U251 CNS.
Take `O=C1C2=Nc3ccccc3C(O)N2c2ccccc21` (stereo unspecified): the total growth inhibition concentration (TGI) in the assay with HOP-92 NSCLC is over 100 µM; with HS 578T breast it was over 100 µM; in the assay on K-562 leukemia, over 100 µM; in the assay on M14 melanoma, over 100 µM; in the assay with MALME-3M melanoma, 29.8 µM; with MDA-MB-231 breast, over 100 µM. Moreover, the TGI in the assay on MOLT-4 leukemia, in the assay on RPMI-8226 leukemia, in the assay with SR leukemia and in the assay on U251 CNS was over 100 µM each time.
Take `Cn1c(O)c(C(/C=C/c2ccccc2)=NCCN=C(/C=C/c2ccccc2)c2c(O)n(C)c(=O)n(C)c2=O)c(=O)n(C)c1=O`: the GI50 is 12 µM in the assay on HOP-92 NSCLC; 13.4 µM in the assay on HS 578T breast; 14.6 µM with K-562 leukemia; 15 µM in the assay with M14 melanoma; 30.9 µM in the assay on MALME-3M melanoma; 20.9 µM with MDA-MB-231 breast. The GI50 was 15.8 µM in the assay on MOLT-4 leukemia, 9.3 µM in the assay on RPMI-8226 leukemia and 18.3 µM with U251 CNS. Besides, the total growth inhibition concentration (TGI) in the assay with HOP-92 NSCLC was 32.5 µM; in the assay with HS 578T breast it was 34.7 µM; in the assay on K-562 leukemia, over 50 µM; in the assay on M14 melanoma, over 50 µM; in the assay with MALME-3M melanoma, over 50 µM; with MDA-MB-231 breast, over 50 µM. In addition, the concentration for total growth inhibition (TGI) is over 50 µM in the assay with MOLT-4 leukemia, 30.4 µM with RPMI-8226 leukemia and over 50 µM in the assay on U251 CNS.
In the case of `COc1cccc2c1-c1c(c3ccc([N+](=O)[O-])cc3c(=O)n1CCCCl)C2=O`, the GI50 is 25.2 µM in the assay with HS 578T breast; over 50 µM in the assay on K-562 leukemia; 8.57 µM in the assay with M14 melanoma; 7.06 µM with MALME-3M melanoma; 29.5 µM with MDA-MB-231 breast; 2.23 µM in the assay on MOLT-4 leukemia. The GI50 is 3.69 µM in the assay on RPMI-8226 leukemia and 0.202 µM in the assay on SR leukemia. In addition, the TGI in the assay with HS 578T breast, with K-562 leukemia, in the assay with M14 melanoma, with MALME-3M melanoma, in the assay with MDA-MB-231 breast and with MOLT-4 leukemia was over 50 µM in each case. For the same molecule, the TGI in the assay on RPMI-8226 leukemia and in the assay on SR leukemia was over 50 µM each time.
With `COC1CCC(O)C(/C=C/[N+](=O)[O-])C1` (stereo unspecified), the TGI is 26.6 µM in the assay on HOP-92 NSCLC; 17.2 µM with HS 578T breast; 22 µM in the assay with K-562 leukemia; 10.7 µM with M14 melanoma; 18.1 µM in the assay with MDA-MB-231 breast; 6.55 µM in the assay with MOLT-4 leukemia. The TGI in the assay on RPMI-8226 leukemia was 4.2 µM; in the assay with SR leukemia, 5.43 µM; in the assay with U251 CNS, 8.04 µM.
On to `O=c1cc(N2CCNCC2)oc2c(-c3ccccc3)cccc12`, for which the GI50 is 17.3 µM in the assay with HOP-92 NSCLC; 9.75 µM in the assay with HS 578T breast; 13.1 µM in the assay on K-562 leukemia; 15.6 µM in the assay on M14 melanoma; 23.6 µM in the assay on MALME-3M melanoma; 24.1 µM with MDA-MB-231 breast. The GI50 was 19.4 µM with MOLT-4 leukemia, 15.3 µM in the assay on RPMI-8226 leukemia and 35.4 µM in the assay on U251 CNS. For the same molecule, the TGI is over 100 µM with HOP-92 NSCLC; over 100 µM with HS 578T breast; 47 µM with K-562 leukemia; 29.1 µM in the assay with M14 melanoma; 56.8 µM in the assay on MALME-3M melanoma; over 100 µM in the assay on MDA-MB-231 breast. In addition, the TGI is 56.8 µM with MOLT-4 leukemia, 38.5 µM in the assay with RPMI-8226 leukemia and over 100 µM in the assay on U251 CNS.
As to `CCOC(=O)C1=C(C)NC2SC(=O)/C(=C\c3ccccc3O)N2C1c1ccccc1` (stereo unspecified), the GI50 was 20.8 µM with HOP-92 NSCLC; 17.4 µM in the assay with HS 578T breast; 26.6 µM in the assay on K-562 leukemia; 24 µM in the assay with M14 melanoma; 33.8 µM in the assay on MDA-MB-231 breast; 18.6 µM in the assay on RPMI-8226 leukemia. Also, the GI50 with U251 CNS is 21.5 µM. Further, the TGI is 43.2 µM in the assay on HOP-92 NSCLC; 50.2 µM with HS 578T breast; over 100 µM in the assay on K-562 leukemia; 65.5 µM in the assay with M14 melanoma; 88.4 µM in the assay with MDA-MB-231 breast; 53.6 µM in the assay on RPMI-8226 leukemia. In the assay on U251 CNS, this molecule displayed a TGI of 49.6 µM.
`c1ccc(-c2cc(C3CO3)c3ccccc3n2)cc1` (stereo unspecified): the TGI stood at 39.2 µM in the assay with HOP-92 NSCLC; 83.9 µM in the assay with HS 578T breast; 93.1 µM with K-562 leukemia; 34.2 µM with M14 melanoma; 51.7 µM in the assay on MDA-MB-231 breast; 49.7 µM with MOLT-4 leukemia. Besides, the total growth inhibition concentration (TGI) in the assay with RPMI-8226 leukemia came out at 58.1 µM; with SR leukemia, 45.3 µM; in the assay with U251 CNS it was 30 µM.
Regarding `CC(C)(C)c1[nH]cnc1/C=c1\[nH]c(=O)/c(=C/c2ccccc2)[nH]c1=O`, the GI50 in the assay on HOP-92 NSCLC was under 0.0118 µM; with HS 578T breast, under 0.01 µM; in the assay with K-562 leukemia, under 0.01 µM; with M14 melanoma, under 0.01 µM; in the assay with MALME-3M melanoma, under 0.105 µM; in the assay on MDA-MB-231 breast, 0.023 µM. Besides, the GI50 in the assay on MOLT-4 leukemia is 0.0215 µM; in the assay on RPMI-8226 leukemia it was under 0.0176 µM; with U251 CNS, under 0.01 µM. In addition, the TGI was 9.11 µM with HOP-92 NSCLC; over 71.8 µM in the assay on HS 578T breast; over 100 µM in the assay with K-562 leukemia; 17.1 µM in the assay on M14 melanoma; 29.8 µM in the assay with MALME-3M melanoma; 30.9 µM in the assay with MDA-MB-231 breast. The values for the TGI in the assay with MOLT-4 leukemia, in the assay on RPMI-8226 leukemia and in the assay with U251 CNS were 19.7 µM, 13.2 µM and 43.9 µM, respectively.
